# In ChEMBL document CHEMBL1144764, “A molecular modeling study of the interaction of 2'-fluoro-substituted analogues of dUMP/FdUMP with thymidylate synthase” (Bioorg Med Chem Lett, 2008):
# Biological target: Thymidylate synthase (Homo sapiens, UniProt P04818)
# Sequence (P04818 whole entry): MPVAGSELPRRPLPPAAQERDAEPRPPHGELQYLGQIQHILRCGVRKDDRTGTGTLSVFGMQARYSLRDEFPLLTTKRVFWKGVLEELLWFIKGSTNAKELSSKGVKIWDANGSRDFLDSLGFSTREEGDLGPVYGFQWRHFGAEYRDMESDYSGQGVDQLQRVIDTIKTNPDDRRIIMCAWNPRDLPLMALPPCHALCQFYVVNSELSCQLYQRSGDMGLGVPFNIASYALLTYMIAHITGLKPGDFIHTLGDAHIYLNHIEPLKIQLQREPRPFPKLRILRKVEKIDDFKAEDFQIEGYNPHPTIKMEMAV
# Description: Binding affinity to human recombinant thymidylate synthase
row,Compound,Ki
1,O=c1ccn([C@@H]2O[C@H](COP(=O)(O)O)[C@@H](O)[C@@H]2F)c(=O)[nH]1,10.3 µM
2,O=c1ccn([C@@H]2O[C@H](COP(=O)(O)O)[C@@H](O)C2(F)F)c(=O)[nH]1,433 µM
